Four molecules from patent US12636352B2, “Functionalized enzyme-powered nanomotors” (FUNDACIO INSTITUT DE BIOENGINYERIA DE CATALUNYA, priority 2018, dated 2026) can be followed below.

Where two headings read alike, the source gives them in different places.

Data set [1] is described as follows: FRET/Cy3 imaging of DNA-switch micromotors by confocal laser scanning microscopy. The conditions noted are these: micromotors in PBS, pH 5 or pH 9. The protocol: To test the functionality of the switch once conjugated to the micromotors, FRET efficiency was monitored through a Leica-SP5 confocal laser scanning microscope (CSLM) equipped with a 63× oil immersion objective (FIG. 6B). For this, micromotors were suspended in PBS either at pH 5 or pH 9 and placed in a 8-well glass bottom dish for their analysis under CSLM. The emission of the donor (Cy3) was recorded using a 564 nm diode laser. The FRET image was obtained by exciting the Cy3 fluorophore and detecting the acceptor (Cy5) emission. Using a custom-made ImageJ plug-in, quantification of the FRET efficiency was achieved by calculating the FRET/Cy3 ratio.
The capability of micromotors to simultaneously record local pH changes produced while they are self-propelling was assessed by combining both optical tracking and FRET imaging using CSLM, where 25 s videos were recorded at 3FPS. In the absence of fuel, a mean FRET/Cy3 ratio of 1.8±0.09 (mean±standard error of the mean) was observed.
To gain insights into the instantaneous pH change around the micromotors from the initial moment of the reaction, micromotors were immobilized onto a glass surface using APTES as a coating agent to provide positive surface charges and stabilize the electrostatic interactions with the negatively charged micromotors. […]

In data set [2] the test system is Human urinary bladder transitional cell papilloma RT4 cells.
Procedure: 3D Cell Culture: Human urinary bladder transitional cell papilloma RT4 cells were cultured in McCoy's 5A (Modified) Medium, supplemented with FBS (10%) and penicillin-streptomycin solution (1%), in a 37° C. and 5% CO2 atmosphere. The cells were split every 4 days at a 1:2 ratio. To obtain 3D RT4 cell cultures, 8-well ibidi dishes were pre-coated with 23 μL of Matrigel™ (5 mg/mL) and incubated at 37° C. for 30 minutes, allowing the gel to form. Next, 30 μL of a suspension of RT4 cells at a density of 5×10^6 cells/mL was spread evenly in each well and the dishes were incubated for 30 minutes at 37° C. Finally, 150 μL of RT4 McCoy's medium containing 10% of Matrigel™ was added. The cultures were allowed to grow for 7 days before the experiments, changing the medium every 2 days.
Cytotoxicity Assays: The viability of RT4 3D cultures was quantified using the Alamar Blue assay and visualized using the LIVE/DEAD viability kit following manufacturer's instructions. […] After, the cultures were washed with medium, kept resting for 24 hours and viability was investigated according to manufacturer's instructions.
The spheroids were obtained by seeding RT4 cells in dishes coated with Matrigel™ which resembles the extracellular matrix and provides a 3D environment for cell growth. Then, the cultures were allowed to proliferate for 7 days and spheroid growth was monitored every day. […] After that, the cultures were washed with medium and cell viability and proliferation was assessed using the Alamar Blue assay.
It was further investigated the viability of the spheroids when exposed to the nanomotors (MSNP-Ur/PEG), under a range of concentrations of urea and at different incubation periods. The spheroids were incubated with 12.5 μg/mL of bare nanomotors or antibody-modified nanomotors at 0 mM, 25 mM, 30 mM and 40 mM of urea, for 1, 2 and 4 hours. Next, the cultures were thoroughly washed with medium to remove nanomotors and uncatalyzed urea and kept for 24 hours before analysis. The effect of the nanomotors on bladder cancer spheroids' viability was visualized using the LIVE/DEAD® viability kit and quantified using the Alamar Blue assay (FIG. 3).
The nature of data set [3]: Fluorescence (ratiometric FRET) pH titration of DNA switch in solution. The conditions noted are these: 50 nM DNA switch. The protocol: Fluorescence measurements were carried out on a Cary Eclipse Fluorimeter (Varian), setting excitation wavelength to λex=530 nm (slitex=5 nm) and acquisition between 540 and 700 nm (slitem=5 nm) using quartz cuvettes of reduced volume (100 μL). All measurements were performed at T=25° C. in 10 mM HEPES. Switches were first diluted in HEPES 10 mM at the concentration of 1 μM. […]
The ratiometric FRET has been calculated as following:
Where FCyS is the maximum fluorescence emission of Cy5 (λem=670 nm) and FCy3 is the maximum fluorescence emission of Cy3 (λem=570 nm). The pH titration curves were obtained by plotting Rat. FRET vs hydronium ions concentration, and fitting the data with the following Langmuir-type equation: […]
Where Rat. FRETTRIPLEX and Rat. FRETDUPLEX represent the FRET signal of the switch in the triplex state (closed) and duplex state (open), respectively and where [H^+] represents the total concentration of hydrogen ions and
As a note, fluorophores employed here are not sensitive to pH in the range of pHs investigated (from pH 5.0 to pH 9.5) to avoid any interferences in the signal. It is important to note that this class of triplex-based switches show opening/closing kinetics sufficiently fast to allow the real time monitoring of pH variation (average time constant ˜100 ms).

Consider “control switch: non-pH responsive hairpin DNA, SEQ ID NO: 3, Cy3/Cy5 labelled; tested conjugated to micromotors (DNA TCCTTGTCTGTCTGTCTGTCTGAACGTTTTTCGTTC; DNA, backbone not given here; further chemistry not fully specified)”, for which, in data set [1], the “FRET/Cy3 emission of switch-modified micromotors at different pH” value was “no significant differences”. In the case of `NC(N)=O` [Urea, urea], the “spheroid viability (biocompatibility)” value in data set [2] is listed as “not affecting spheroid viability”. As to `N` [ammonia], the spheroid viability in data set [2] (20 mM ammonia) was over 70%; in data set [2] (24 hours, all ammonia concentrations tested) it was over 70%. For the same molecule, in data set [2] (24 hours incubation, range of concentrations), the “spheroid viability (biocompatibility)” value is “increased cytotoxic trend with increasing concentrations”.

B1: DNA switch: triplex-forming single stranded DNA, SEQ ID NO: 1, labelled with Cy3 and Cy5 (nucleic acid)
DNA: TCCTTGTCTGTCTGTCTGTCTTTTTTGAAGAAGGAATTTATTCCTTCTTCGTTTGCTTCTTCCTT
modifications: DNA, backbone not given here; Cy3 and Cy5 labels, further chemistry not fully specified
For B1, the FRET efficiency entry in data set [3] (acidic pH values) is “high FRET efficiency”. Besides, the FRET signal result in data set [3] (pH of the solution increased (pH 5.0 to 9.5)) is given as “gradual decrease”.
